# Structures can show the parent of a compound that is named as a salt. Where two headings read alike, the source gives them in different places.
# System: mice
# Assay: Haffner test ("Tail clip test") in mice
# Assay type: in vivo, mouse (male CD mice)
# Settings: Mus musculus, read-out: ED50 (Haffner test in mice)
# From the text: METHOD: Haffner Test ("Tail clip test") in Mice
# The Haffner test is a standard procedure for determining the pain-inhibiting effect of powerful analgesics, mostly of the opioid type, in mice. The method largely corresponds to the one described by Bianchi C. and Franceschini J. (Brit. J. Pharmacol. 9:280, 1954; Experimental observations on Haffner's method for testing analgesic drugs).
# Male CD mice (from Charles River, Sulzfeld, FRG) with an average weight of 30±5 grams were used. The animals were kept under standard conditions (temperature: 22±2° C., relative humidity: 55±10%, air exchange: 15-20 times per hour and 12/12 hours light/darkness cycle). The animals had unlimited access to food and water until the test began. During the test the animals were kept singly in Makrolon Type III cages with no bedding. A 3.5 cm arterial clamp was placed about 2 cm from the base of the tail and the pain reaction time was measured in seconds. Any active attempt by the animal to remove the clamp was assessed as a pain reaction. To prevent tissue damage, the test was stopped after at most 30 seconds in every case (cut off latency). In a preliminary test, mice with a pain reaction time of less than 5 seconds (base line latency) were selected for the actual test, which was carried out at specific intervals after the administration of the drug (test latency).
# Corresponding quantities of test substances were dissolved in physiological saline solution for intravenous administration or in twice distilled water for oral administration. The total volume administered was 10 ml/kg of body weight in each case. Controls were given the same solvent but with no test substance. 8-10 mice were tested in each group.
# The results were plotted as individual values (seconds), mean value±scattering (seconds) per group and as the percent of the maximum possible effect (% MPE=percent of Maximum Possible Effect). [formula] Significant differences between the control and test groups were calculated by means of an unpaired, two-sided Students T-test (*2P<0.05;**2P<0.01; 2P<0.001).
# The ED50 value describes the dosage at which 50% of the maximum possible effect (MPE) is achieved. The ED50 value is calculated by linear regression between the dose and the % MPE.
Structure (SMILES),"ED50 (iv, 10 min, i.v., 10 min.) [µmol/kg]","ED50 (iv, 0.5 h, i.v., 30 min.) [µmol/kg]","ED50 (iv, 1 h, i.v., 60 min.) [µmol/kg]","ED50 (iv, 2 h, i.v., 120 min.) [µmol/kg]","ED50 (po, 0.5 h, p.o., 30 min.) [µmol/kg]","ED50 (po, 1 h, p.o., 60 min.) [µmol/kg]","ED50 (po, 2 h, p.o., 120 min.) [µmol/kg]","ED50 (po, 3 h, p.o., 180 min.) [µmol/kg]","ED50 (iv, 10 min) [µmol/kg]","ED50 (iv, 0.5 h) [µmol/kg]","ED50 (iv, 1 h) [µmol/kg]","ED50 (iv, 2 h) [µmol/kg]","ED50 (po, 0.5 h) [µmol/kg]","ED50 (po, 1 h) [µmol/kg]","ED50 (po, 2 h) [µmol/kg]","ED50 (po, 3 h) [µmol/kg]"
CN1CC[C@]23c4c5ccc(O)c4O[C@H]2[C@@H](OCCCCC#N)C=C[C@H]3[C@H]1C5 [Example 27],0.0059,0.0073,0.0154,0.038,0.059,0.073,0.108,0.178,–,–,–,–,–,–,–,–
"CN1CC[C@]23c4c5ccc(O)c4O[C@H]2[C@@H](O)C=C[C@H]3[C@H]1C5 [Morphine.HCl, reference compound]",–,–,–,–,–,–,–,–,0.017,0.019,0.021,0.037,0.279,0.296,0.539,0.718
CCCC(O)CO[C@H]1C=C[C@H]2[C@H]3Cc4ccc(O)c5c4[C@@]2(CCN3C)[C@H]1O5 (stereo partly drawn) [Example 33],0.0019,0.0046,0.0083,0.021,0.029,0.037,0.051,0.069,–,–,–,–,–,–,–,–
CN1CC[C@]23c4c5ccc(O)c4O[C@H]2[C@@H](OCCCCOC(=O)C(C)(C)C)C=C[C@H]3[C@H]1C5 [Example 6],0.0005,0.0026,0.0114,0.029,0.058,0.108,0.12,0.132,–,–,–,–,–,–,–,–
CCOC(=O)CCCCO[C@H]1C=C[C@H]2[C@H]3Cc4ccc(O)c5c4[C@@]2(CCN3C)[C@H]1O5 [Example 25],0.0011,0.0057,0.0112,0.0129,0.0201,0.028,0.031,0.037,–,–,–,–,–,–,–,–
CN1CC[C@]23c4c5ccc(O)c4O[C@H]2[C@@H](OC(=O)C(C)(O)C(F)(F)F)C=C[C@H]3[C@H]1C5 (stereo partly drawn) [Example 11],0.0056,0.007,0.013,0.019,0.148,0.172,0.256,0.269,–,–,–,–,–,–,–,–
CC(=O)OCCCO[C@H]1C=C[C@H]2[C@H]3Cc4ccc(O)c5c4[C@@]2(CCN3C)[C@H]1O5 [Example 38],0.0003,0.0019,0.0036,0.079,0.023,0.027,0.035,0.043,–,–,–,–,–,–,–,–
COC(=O)CCCCC(=O)O[C@H]1C=C[C@H]2[C@H]3Cc4ccc(O)c5c4[C@@]2(CCN3C)[C@H]1O5 [Example 20],0.0037,0.0051,0.011,0.015,0.118,0.12,0.17,0.234,–,–,–,–,–,–,–,–

# From patent US6150524A, “Morphine derivatives with analgesic activity” (priority 1995, dated 2000)
